# pIC50: −log10 of the molar value.
# Columns and labels:
# [1] = tested on: HDAC1, HDAC3, and HDAC6; assay: Isoform preference across HDAC1, HDAC3 and HDAC6; type: biochemical
# [2] = tested on: HDAC activity of HeLa cell lysates; details: ref 16b, cited from earlier work
# [3] = tested on: HDAC activity of HeLa cell lysates
structure (smiles),measurement,setting,value
CC(CCCCC(=O)NO)CC(=O)Nc1ccccc1 (stereo not shown) [2a],isoform preference in single-concentration screen,[1]; 500 nM,modest dual-preference for HDAC1 and HDAC3 over HDAC6
CCCCC(CC)CC(CCCCC(=O)NO)CC(=O)Nc1ccccc1 (stereo not shown) [2d],isoform preference in single-concentration screen,[1]; 500 nM,preference for HDAC3 over HDAC1 and HDAC6
O=C(CCCCC(CC(=O)Nc1ccccc1)c1ccccc1)NO (stereo not shown) [2b],isoform preference in single-concentration screen,[1]; 500 nM,"similarly inhibited HDAC1, HDAC3, and HDAC6"
O=C(CC(CCCCC(=O)Nc1ccccc1)c1ccccc1)NO (stereo not shown) [C3-phenyl SAHA variant],pIC50,"[2]; read-out: IC50, HDAC inhibition",4.14
same,fold reduced activity versus SAHA,[2],811 fold
CC(C)(C)C(CCCCC(=O)NO)CC(=O)Nc1ccccc1 (stereo not shown) [2c],fold reduced potency compared to SAHA,[3],20 fold
same,isoform preference in single-concentration screen,[1]; 2 µM,preference for HDAC1 and HDAC6 over HDAC3
